Columns and labels:
Experiment in all cases: relative viability (nuclei count vs DMSO), 5 days (fraction); higher = more cells survive
NCI-H2170 = test system: NCI-H2170
Outline: (§1)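 Relative viability divides the nuclei count in treated wells by that in vehicle wells. Lung cancer cell lines were seeded in 1536-well plates, dosed by pin tool the next day, and fixed and stained after 5 days in one step with final 0.05% Triton X-100, 1% formaldehyde and 1 ug/ml Hoechst. Dosing was a single drug or a fixed anchor-drug dose plus five library-drug doses (not always all listed) in √10 steps, and values are medians of duplicate plates imaged at 4×.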

ABC-1 = test system: ABC-1
Outline: as §1

NCI-H661 = test system: NCI-H661
Outline: as §1

EKVX = test system: EKVX
Outline: as §1

COR-L23 = test system: COR-L23
Outline: as §1

NCI-H2023 = test system: NCI-H2023
Outline: as §1

LU99A = test system: LU99A
Outline: as §1

NCI-H1650 = test system: NCI-H1650
Outline: as §1

COR-L 105 = test system: COR-L 105
Outline: as §1

NCI-H3122 = test system: NCI-H3122
Outline: as §1

HCC-366 = test system: HCC-366
Outline: as §1

HARA = test system: HARA
Outline: as §1

201T = test system: 201T
Outline: as §1

NCI-H2009 = test system: NCI-H2009
Outline: as §1

NCI-H727 = test system: NCI-H727
Outline: as §1

NCI-H838 = test system: NCI-H838
Outline: as §1

NCI-H1437 = test system: NCI-H1437
Outline: as §1

NCI-H1666 = test system: NCI-H1666
Outline: as §1

PC-14 = test system: PC-14
Outline: as §1

BEN = test system: BEN
Outline: as §1

NCI-H441 = test system: NCI-H441
Outline: as §1

CAL-12T = test system: CAL-12T
Outline: as §1

LK-2 = test system: LK-2
Outline: as §1

SW 900 = test system: SW 900
Outline: as §1

**Q.** What does the source list for `COc1cc(N2CCC(C(N)=O)CC2)ccc1Nc1nc(N)c(Cl)c(Nc2ccccc2S(=O)(=O)C(C)C)n1` [HG-5-88-01] + O=C(CCCCCCC(=O)Nc1ccccc1)NO [Vorinostat] (partner 1 µM)?
**A.** relative viability (NCI-H2170; first compound 0.04 µM): 0.837; relative viability (NCI-H2170; first compound 0.1265 µM): 0.9; relative viability (NCI-H2170; first compound 0.4 µM): 0.773; relative viability (NCI-H2170; first compound 1.265 µM): 0.594; relative viability (NCI-H2170; first compound 4 µM): 0.892; relative viability (ABC-1; first compound 0.04 µM): 1.07; relative viability (ABC-1; first compound 0.1265 µM): 1.48; relative viability (ABC-1; first compound 0.4 µM): 1.04; relative viability (ABC-1; first compound 1.265 µM): 1.04; relative viability (ABC-1; first compound 4 µM): 0.715; relative viability (NCI-H661; first compound 0.04 µM): 0.793; relative viability (NCI-H661; first compound 0.1265 µM): 0.791; relative viability (NCI-H661; first compound 0.4 µM): 0.771; relative viability (NCI-H661; first compound 1.265 µM): 0.761; relative viability (NCI-H661; first compound 4 µM): 0.856; relative viability (EKVX; first compound 0.04 µM): 0.789; relative viability (EKVX; first compound 0.1265 µM): 0.775; relative viability (EKVX; first compound 0.4 µM): 0.712; relative viability (EKVX; first compound 4 µM): 0.63; relative viability (COR-L23; first compound 0.04 µM): 0.496; relative viability (COR-L23; first compound 0.1265 µM): 0.381; relative viability (COR-L23; first compound 0.4 µM): 0.355; relative viability (COR-L23; first compound 1.265 µM): 0.364; relative viability (COR-L23; first compound 4 µM): 0.227; relative viability (NCI-H2023; first compound 0.04 µM): 0.764; relative viability (NCI-H2023; first compound 0.1265 µM): 0.777; relative viability (NCI-H2023; first compound 0.4 µM): 0.361; relative viability (NCI-H2023; first compound 1.265 µM): 0.425; relative viability (NCI-H2023; first compound 4 µM): 0.436; relative viability (LU99A; first compound 0.04 µM): 0.442; relative viability (LU99A; first compound 0.1265 µM): 0.454; relative viability (LU99A; first compound 0.4 µM): 0.522; relative viability (LU99A; first compound 1.265 µM): 0.55; relative viability (LU99A; first compound 4 µM): 0.436; relative viability (NCI-H1650; first compound 0.04 µM): 0.577; relative viability (NCI-H1650; first compound 0.1265 µM): 0.654; relative viability (NCI-H1650; first compound 0.4 µM): 0.541; relative viability (NCI-H1650; first compound 1.265 µM): 0.526; relative viability (NCI-H1650; first compound 4 µM): 0.46; relative viability (COR-L 105; first compound 0.04 µM): 0.849; relative viability (COR-L 105; first compound 0.1265 µM): 0.722; relative viability (COR-L 105; first compound 0.4 µM): 0.847; relative viability (COR-L 105; first compound 1.265 µM): 0.639; relative viability (COR-L 105; first compound 4 µM): 0.59; relative viability (NCI-H3122; first compound 0.04 µM): 0.731; relative viability (NCI-H3122; first compound 0.1265 µM): 0.438; relative viability (NCI-H3122; first compound 0.4 µM): 0.195; relative viability (NCI-H3122; first compound 1.265 µM): 0.218; relative viability (NCI-H3122; first compound 4 µM): 0.158; relative viability (HCC-366; first compound 0.04 µM): 0.438; relative viability (HCC-366; first compound 0.1265 µM): 0.452; relative viability (HCC-366; first compound 0.4 µM): 0.339; relative viability (HCC-366; first compound 1.265 µM): 0.336; relative viability (HCC-366; first compound 4 µM): 0.283; relative viability (HARA; first compound 0.04 µM): 0.532; relative viability (HARA; first compound 0.1265 µM): 0.526; relative viability (HARA; first compound 0.4 µM): 0.585; relative viability (HARA; first compound 1.265 µM): 0.577; relative viability (HARA; first compound 4 µM): 0.507; relative viability (201T; first compound 0.04 µM): 0.984; relative viability (201T; first compound 0.1265 µM): 0.94; relative viability (201T; first compound 1.265 µM): 0.883; relative viability (201T; first compound 4 µM): 1.11; relative viability (NCI-H2009; first compound 0.04 µM): 0.704; relative viability (NCI-H2009; first compound 0.1265 µM): 0.796; relative viability (NCI-H2009; first compound 0.4 µM): 0.694; relative viability (NCI-H2009; first compound 1.265 µM): 0.616; relative viability (NCI-H2009; first compound 4 µM): 0.647; relative viability (NCI-H727; first compound 0.04 µM): 1.29; relative viability (NCI-H727; first compound 0.1265 µM): 1.18; relative viability (NCI-H727; first compound 0.4 µM): 1.19; relative viability (NCI-H727; first compound 4 µM): 1.1; relative viability (NCI-H838; first compound 0.04 µM): 0.745; relative viability (NCI-H838; first compound 0.1265 µM): 0.707; relative viability (NCI-H838; first compound 0.4 µM): 0.651; relative viability (NCI-H838; first compound 1.265 µM): 0.596; relative viability (NCI-H838; first compound 4 µM): 0.53; relative viability (NCI-H1437; first compound 0.04 µM): 0.899; relative viability (NCI-H1437; first compound 0.1265 µM): 0.897; relative viability (NCI-H1437; first compound 0.4 µM): 0.645; relative viability (NCI-H1437; first compound 1.265 µM): 0.78; relative viability (NCI-H1437; first compound 4 µM): 0.613; relative viability (NCI-H1666; first compound 0.04 µM): 0.984; relative viability (NCI-H1666; first compound 0.1265 µM): 1; relative viability (NCI-H1666; first compound 0.4 µM): 0.975; relative viability (NCI-H1666; first compound 1.265 µM): 0.92; relative viability (NCI-H1666; first compound 4 µM): 0.828; relative viability (PC-14; first compound 0.04 µM): 0.813; relative viability (PC-14; first compound 0.1265 µM): 0.759; relative viability (PC-14; first compound 0.4 µM): 0.656; relative viability (PC-14; first compound 1.265 µM): 0.261; relative viability (PC-14; first compound 4 µM): 0.155; relative viability (BEN; first compound 0.04 µM): 0.555; relative viability (BEN; first compound 0.1265 µM): 0.624; relative viability (BEN; first compound 0.4 µM): 0.591; relative viability (BEN; first compound 1.265 µM): 0.552; relative viability (BEN; first compound 4 µM): 0.532; relative viability (NCI-H441; first compound 0.04 µM): 0.779; relative viability (NCI-H441; first compound 0.1265 µM): 0.736; relative viability (NCI-H441; first compound 0.4 µM): 0.678; relative viability (NCI-H441; first compound 1.265 µM): 0.865; relative viability (NCI-H441; first compound 4 µM): 0.725; relative viability (CAL-12T; first compound 0.04 µM): 0.747; relative viability (CAL-12T; first compound 0.1265 µM): 0.89; relative viability (CAL-12T; first compound 0.4 µM): 0.623; relative viability (CAL-12T; first compound 1.265 µM): 0.811; relative viability (CAL-12T; first compound 4 µM): 0.49; relative viability (LK-2; first compound 0.04 µM): 0.326; relative viability (LK-2; first compound 0.1265 µM): 0.411; relative viability (LK-2; first compound 0.4 µM): 0.466; relative viability (LK-2; first compound 4 µM): 0.306; relative viability (SW 900; first compound 0.04 µM): 0.583; relative viability (SW 900; first compound 0.1265 µM): 0.334; relative viability (SW 900; first compound 0.4 µM): 0.525; relative viability (SW 900; first compound 1.265 µM): 0.447; relative viability (SW 900; first compound 4 µM): 0.354

— the supplement of paper PMC10307832
